Target: T1, Leukotriene A-4 hydrolase (Homo sapiens, UniProt P09960)
T1 sequence (P09960 whole entry): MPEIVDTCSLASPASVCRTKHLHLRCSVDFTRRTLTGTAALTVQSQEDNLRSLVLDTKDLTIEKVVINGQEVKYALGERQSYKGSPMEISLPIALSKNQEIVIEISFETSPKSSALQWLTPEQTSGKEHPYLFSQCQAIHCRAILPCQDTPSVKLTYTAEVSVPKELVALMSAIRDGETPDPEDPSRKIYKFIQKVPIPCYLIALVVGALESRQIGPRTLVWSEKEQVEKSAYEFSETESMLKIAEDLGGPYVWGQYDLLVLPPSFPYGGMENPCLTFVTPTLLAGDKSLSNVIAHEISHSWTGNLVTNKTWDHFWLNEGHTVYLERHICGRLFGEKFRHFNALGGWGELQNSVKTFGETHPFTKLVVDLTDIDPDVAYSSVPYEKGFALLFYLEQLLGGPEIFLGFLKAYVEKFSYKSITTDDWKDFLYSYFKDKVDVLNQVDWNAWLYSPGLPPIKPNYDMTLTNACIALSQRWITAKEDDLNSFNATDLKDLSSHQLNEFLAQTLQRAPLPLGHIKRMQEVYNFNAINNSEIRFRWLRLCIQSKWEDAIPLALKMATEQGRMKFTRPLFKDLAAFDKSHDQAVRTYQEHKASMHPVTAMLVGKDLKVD
Experiment: Homogenous Time Resolved Fluorescence Assay
Excerpt: The hydrolase-homogeneous time resolved fluorescence assay is a two-step assay that measures the hydrolysis of LTA4 to LTB4 by analyzing the amount of LTB4 produced. The first step involves the enzymatic conversion of LTA4 to LTB4 and the second step involves the quantification of the LTB4 formed with a homogeneous time resolved fluorescence assay.

Row | IC50 | SMILES
1 | 15 µM | O=c1c(-c2ccc(O)cc2)coc2cc(O)ccc12 [US20240398793, Compound 11]
2 | 48.2 µM | O=c1c(-c2ccccc2)coc2cc(O)ccc12 [US20240398793, Compound 13]
3 | 1.2 µM | Cc1ccc2c(=O)c(-c3ccc(O)cc3)coc2c1O [US20240398793, Compound 15]

The remaining lines, values behind:

Row | SMILES | IC50
4 | COc1cc(O)cc(CCc2cccc(O)c2)c1 [Batatasin III (4)] | 1.7 µM
5 | CC(=O)Oc1ccc(/C=C/c2cc(OC(C)=O)cc(OC(C)=O)c2)cc1 [US20240398793, Compound 4] | 38.6 µM
6 | COc1cc(O)cc(/C=C/c2ccc(O)cc2)c1 [US20240398793, Compound 5] | 3.9 µM
7 | COc1cc(O)cc(CCc2ccc(O)cc2)c1 [US20240398793, Compound 6] | 6.4 µM
8 | CCOc1cc(O)cc(CCc2ccc(O)cc2)c1 [US20240398793, Compound 7] | 3.2 µM
9 | COc1cc(O)cc(CCc2ccccc2O)c1 [US20240398793, Compound 9] | 0.5 µM
10 | O=C(Cc1ccc(O)cc1)c1ccc(O)cc1O [US20240398793, Compound 10] | 34.2 µM

Source: BindingDB's records for patent US20240398793 (Celltaxis, 2024)
